Source: BindingDB's records for doi:10.1021/jm049771u (Bar-Ilan University, 2004)

Molecular target: P2Y purinoceptor 1 (Rattus norvegicus, UniProt P49651)
Assay: Concentration required for calcium mobilization at rat purinergic 2Y1 receptor expressed in HEK 293 cells

Sequence of P2Y purinoceptor 1 (P49651 whole entry): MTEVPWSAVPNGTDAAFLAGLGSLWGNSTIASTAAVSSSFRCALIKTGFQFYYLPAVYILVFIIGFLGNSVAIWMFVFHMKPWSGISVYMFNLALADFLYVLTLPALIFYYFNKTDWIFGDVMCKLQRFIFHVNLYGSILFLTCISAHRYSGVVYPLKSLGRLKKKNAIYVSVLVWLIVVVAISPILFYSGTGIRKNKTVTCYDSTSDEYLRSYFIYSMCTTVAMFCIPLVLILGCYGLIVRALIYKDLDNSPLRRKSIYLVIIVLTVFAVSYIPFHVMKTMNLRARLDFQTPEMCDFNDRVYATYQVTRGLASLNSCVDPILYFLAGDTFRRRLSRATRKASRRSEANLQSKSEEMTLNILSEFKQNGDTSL

## B[PH](O)(OC[C@H]1OC(n2cnc3c(N)nc(Cl)nc32)[C@H](O)[C@@H]1O)OP(=O)(O)OP(=O)(O)O (stereo partly specified)
  EC50: 4.5 nM
